According to patent US6646181B1, “Solid matrix control of seed conditioning using selected cell cycle stages” (Kamterter II, L.L.C., priority 1987, dated 2003):

Tested on: lettuce (Lactuca sativa) 'Montello'
Test: Alleviation of thermodormancy: lettuce germination at 35 C
Type: in vivo
Conditions: 35 C in the dark, after 10 days, priming 20-24 hours
Experimental: Alleviation of thermodormancy by priming was studied in lettuce (Lactuca sativa) ‘Montello’. SMP of lettuce was performed with Agro-Lig (Table 1). Conventional priming treatments included: −1.5 MPa PEG 8000 (Bradford, 1986, supra) and 1.0% K3PO4 (Cantliffe, et al., 1984, Plant Physiol. 75:290-294). After priming, seeds were rinsed and allowed to dry. Seeds were placed to germinate on moistened blotters in closed containers. The containers were maintained at a constant 35 C in the dark. There were four replications of 50 seeds each and the percent germination was determined after 10 days.

O=P([O-])([O-])[O-].[K+].[K+].[K+] [1.0% K3PO4, K3PO4]
Percent germination: 71 a %
